Measurements taken from ChEMBL document CHEMBL5303573, “Mapping human microbiome drug metabolism by gut bacteria and their genes” (Nature, 2019).

Key:
[1] = The drug is tested on Bifidobacterium longum subsp. Infantis strain: CCUG52486 for biotransformation. The drug concentrations were measured before and after a 12-h incubation by liquid-chromatography-coupled mass spectrometry (LC–MS); conditions: 2 µM
[2] = The drug is tested on Collinsella aerofaciens strain: ATCC25986 for biotransformation. The drug concentrations were measured before and after a 12-h incubation by liquid-chromatography-coupled mass spectrometry (LC–MS); conditions: 2 µM
[3] = The drug is tested on Bacteroides dorei strain: DSM17855 for biotransformation. The drug concentrations were measured before and after a 12-h incubation by liquid-chromatography-coupled mass spectrometry (LC–MS); conditions: phocaeicola dorei, 2 µM
[4] = The drug is tested on Bacteroides ovatus strain: ATCC8483 for biotransformation. The drug concentrations were measured before and after a 12-h incubation by liquid-chromatography-coupled mass spectrometry (LC–MS); conditions: 2 µM
[5] = The drug is tested on Blautia luti strain: DSM14534 for biotransformation. The drug concentrations were measured before and after a 12-h incubation by liquid-chromatography-coupled mass spectrometry (LC–MS); assay type: ADME; design: dose 2 uM, timepoint 0 vs 12 hours; conditions: 2 µM
[6] = The drug is tested on Clostridium sp. strain: fecal isolate for biotransformation. The drug concentrations were measured before and after a 12-h incubation by liquid-chromatography-coupled mass spectrometry (LC–MS); conditions: 2 µM
[7] = The drug is tested on Clostridium scindens strain: ATCC35704 for biotransformation. The drug concentrations were measured before and after a 12-h incubation by liquid-chromatography-coupled mass spectrometry (LC–MS); conditions: 2 µM
[8] = The drug is tested on Clostridium sporogenes strain: ATCC15579 for biotransformation. The drug concentrations were measured before and after a 12-h incubation by liquid-chromatography-coupled mass spectrometry (LC–MS); conditions: 2 µM
[9] = The drug is tested on Eubacterium hallii strain: DSM3353 for biotransformation. The drug concentrations were measured before and after a 12-h incubation by liquid-chromatography-coupled mass spectrometry (LC–MS); conditions: anaerobutyricum hallii, 2 µM
[10] = The drug is tested on Eubacterium ventriosum strain: ATCC27560 for biotransformation. The drug concentrations were measured before and after a 12-h incubation by liquid-chromatography-coupled mass spectrometry (LC–MS); assay type: ADME; design: dose 2 uM, timepoint 0 vs 12 hours; conditions: 2 µM
[11] = The drug is tested on Ruminococcus lactaris strain: ATCC29176 for biotransformation. The drug concentrations were measured before and after a 12-h incubation by liquid-chromatography-coupled mass spectrometry (LC–MS); conditions: 2 µM
[12] = The drug is tested on Ruminococcus torques strain: ATCC27756 for biotransformation. The drug concentrations were measured before and after a 12-h incubation by liquid-chromatography-coupled mass spectrometry (LC–MS); assay type: ADME; design: dose 2 uM, timepoint 0 vs 12 hours; conditions: 2 µM
[13] = bifidobacterium adolescentis, 12 h, 2 µM
Description: The drug is tested on Bifidobacterium adolescentis strain: ATCC 15703 for biotransformation. The drug concentrations were measured before and after a 12-h incubation by liquid-chromatography-coupled mass spectrometry (LC–MS)

[14] = bacteroides fragilis, 12 h, 2 µM
Description: The drug is tested on Bacteroides fragilis strain: NCTC 9343 for biotransformation. The drug concentrations were measured before and after a 12-h incubation by liquid-chromatography-coupled mass spectrometry (LC–MS)

[15] = bacteroides fragilis, 12 h, 2 µM; remark: listed apart in the source
Description: The drug is tested on Bacteroides fragilis strain: 3397 (T10) for biotransformation. The drug concentrations were measured before and after a 12-h incubation by liquid-chromatography-coupled mass spectrometry (LC–MS)

[16] = bacteroides thetaiotaomicron, 12 h, 2 µM
Description: The drug is tested on Bacteroides thetaiotaomicron strain: 3731 for biotransformation. The drug concentrations were measured before and after a 12-h incubation by liquid-chromatography-coupled mass spectrometry (LC–MS)

[17] = roseburia intestinalis, 12 h, 2 µM
Description: The drug is tested on Roseburia intestinalis strain: L1-82 for biotransformation. The drug concentrations were measured before and after a 12-h incubation by liquid-chromatography-coupled mass spectrometry (LC–MS)

[18] = The drug is tested on Bifidobacterium ruminantium strain: fecal isolate for biotransformation. The drug concentrations were measured before and after a 12-h incubation by liquid-chromatography-coupled mass spectrometry (LC–MS); conditions: 2 µM
[19] = The drug is tested on Bifidobacterium breve strain: DSM20213 for biotransformation. The drug concentrations were measured before and after a 12-h incubation by liquid-chromatography-coupled mass spectrometry (LC–MS); conditions: 2 µM

Row | Structure (SMILES) | Bacterial Biotransformation [1] | Bacterial Biotransformation [5] | Bacterial Biotransformation [6] | Bacterial Biotransformation [7] | Bacterial Biotransformation [9] | Bacterial Biotransformation [10] | Bacterial Biotransformation [12] | Bacterial Biotransformation [13] | Bacterial Biotransformation [14] | Bacterial Biotransformation [18] | Bacterial Biotransformation [19] | Bacterial Biotransformation [2] | Bacterial Biotransformation [3] | Bacterial Biotransformation [4] | Bacterial Biotransformation [8] | Bacterial Biotransformation [11] | Bacterial Biotransformation [15] | Bacterial Biotransformation [16] | Bacterial Biotransformation [17]
1 | O=C1CC2(CCCC2)CC(=O)N1CCCCN1CCN(c2ncccn2)CC1 [BUSPIRONE] | Compound NOT metabolized | Compound NOT metabolized | Compound NOT metabolized | Compound NOT metabolized | Compound NOT metabolized | Compound NOT metabolized | Compound NOT metabolized | Compound NOT metabolized | Compound NOT metabolized | – | – | Compound NOT metabolized | Compound NOT metabolized | Compound NOT metabolized | Compound NOT metabolized | Compound NOT metabolized | Compound NOT metabolized | Compound NOT metabolized | Compound NOT metabolized
2 | COC1=CC(=O)C[C@@H](C)[C@]12Oc1c(Cl)c(OC)cc(OC)c1C2=O [GRISEOFULVIN] | Compound NOT metabolized | Compound NOT metabolized | Compound metabolized | Compound NOT metabolized | Compound NOT metabolized | Compound NOT metabolized | Compound NOT metabolized | Compound NOT metabolized | Compound metabolized | Compound NOT metabolized | – | Compound NOT metabolized | Compound metabolized | – | – | – | Compound metabolized | Compound NOT metabolized | –
3 | CN(CCOc1ccc(CC2SC(=O)NC2=O)cc1)c1ccccn1.O=C(O)/C=C\C(=O)O (stereo unspecified) [ROSIGLITAZONE MALEATE] | Compound NOT metabolized | Compound NOT metabolized | Compound NOT metabolized | Compound NOT metabolized | Compound NOT metabolized | Compound NOT metabolized | Compound NOT metabolized | Compound NOT metabolized | Compound NOT metabolized | – | Compound NOT metabolized | Compound NOT metabolized | Compound NOT metabolized | Compound NOT metabolized | Compound NOT metabolized | Compound NOT metabolized | Compound NOT metabolized | Compound NOT metabolized | Compound NOT metabolized
4 | CCCc1nn(C)c2c(=O)[nH]c(-c3cc(S(=O)(=O)N4CCN(C)CC4)ccc3OCC)nc12.O=C(O)CC(O)(CC(=O)O)C(=O)O [SILDENAFIL CITRATE] | Compound NOT metabolized | Compound NOT metabolized | Compound metabolized | Compound NOT metabolized | Compound NOT metabolized | Compound NOT metabolized | Compound NOT metabolized | Compound NOT metabolized | Compound metabolized | – | Compound NOT metabolized | – | – | Compound metabolized | – | Compound NOT metabolized | Compound NOT metabolized | Compound NOT metabolized | Compound NOT metabolized
5 | CCCCCNC(=N)N/N=C/c1c[nH]c2ccc(OC)cc12.O=C(O)/C=C\C(=O)O [TEGASEROD MALEATE] | Compound NOT metabolized | Compound NOT metabolized | Compound NOT metabolized | Compound NOT metabolized | Compound NOT metabolized | Compound NOT metabolized | Compound NOT metabolized | Compound NOT metabolized | Compound NOT metabolized | – | Compound NOT metabolized | Compound NOT metabolized | Compound NOT metabolized | Compound NOT metabolized | Compound NOT metabolized | Compound NOT metabolized | Compound NOT metabolized | Compound NOT metabolized | Compound NOT metabolized

Further lines, with some results ahead:

Row | Bacterial Biotransformation [1] | Bacterial Biotransformation [5] | Bacterial Biotransformation [6] | Bacterial Biotransformation [7] | Bacterial Biotransformation [9] | Bacterial Biotransformation [10] | Bacterial Biotransformation [12] | Bacterial Biotransformation [13] | Bacterial Biotransformation [14] | Bacterial Biotransformation [18] | Bacterial Biotransformation [19] | Structure (SMILES) | Bacterial Biotransformation [2] | Bacterial Biotransformation [3] | Bacterial Biotransformation [4] | Bacterial Biotransformation [8] | Bacterial Biotransformation [11] | Bacterial Biotransformation [15] | Bacterial Biotransformation [16] | Bacterial Biotransformation [17]
6 | Compound NOT metabolized | Compound NOT metabolized | Compound NOT metabolized | Compound NOT metabolized | Compound NOT metabolized | Compound NOT metabolized | Compound NOT metabolized | Compound NOT metabolized | Compound NOT metabolized | – | Compound NOT metabolized | CCN1CCCC1CNC(=O)c1cc(S(N)(=O)=O)ccc1OC (stereo unspecified) [SULPIRIDE] | Compound NOT metabolized | Compound NOT metabolized | Compound NOT metabolized | Compound NOT metabolized | Compound NOT metabolized | – | – | Compound NOT metabolized
7 | Compound metabolized | Compound NOT metabolized | Compound NOT metabolized | Compound NOT metabolized | Compound NOT metabolized | Compound NOT metabolized | Compound NOT metabolized | Compound NOT metabolized | Compound metabolized | – | Compound NOT metabolized | N#Cc1ccc2[nH]cc(CCCCN3CCN(c4ccc5oc(C(N)=O)cc5c4)CC3)c2c1 [VILAZODONE] | Compound NOT metabolized | Compound metabolized | Compound metabolized | Compound metabolized | Compound NOT metabolized | Compound metabolized | Compound metabolized | Compound NOT metabolized
